This is an account of results in US10689595B2 (THE REGENTS OF THE UNIVERSITY OF CALIFORNIA, priority 2016, dated 2020).

Assay [1] has as its system naïve rats. Nature of the assay: von Frey mechanical allodynia assay in naïve rats. It counts as in vivo, Sprague-Dawley rats. Particulars: methyl esters, 1 μg intraplantar, FIG. 6A. How it is done: Male Sprague-Dawley rats weighing approximately 250-300 grams were obtained from Charles River Laboratories. On the day of the test, rats were brought to the testing apparatus and allowed to acclimate. The apparatus is a raised metal mesh platform with clear acrylic chambers to enclose rats but allow them to move freely. After 30 minutes the rats were tested with a von Frey aesthesiometer for their non-treated baseline withdrawal thresholds using a rigid tip on the plantar surface of the rat hind paw though the mesh floor. The scores are grams of force applied to the hind paw required to elicit a withdrawal. The pretreatment baseline score was considered the pain-free baseline (BL) and was assigned 100% for further response calculations.
For the pain assay, 20-HETE methyl ester, 20-HEPE methyl ester, or 22-HDoHE methyl ester, formulated in 10% EtOH in saline, were injected intraplantar in naïve rats. Withdrawal thresholds were measured at 15, 30, 60, 90, 120 and 150 minutes post injection. Reported scores are calculated as a percent of the pretreatment baseline score with an average of 6 rats (3 trials per rat) with SEM for the group.
The methyl esters compounds of 20-HETE, 20-HEPE and 22-HDoHE were tested for their ability to induce mechanical allodynia in vivo. For the assay, naïve rats were injected intraplantar with 1 μg of each ester and tested with an electronic von Frey aesthesiometer.

For assay [2], the target named is T1, mTRPV1 (Mus musculus, UniProt Q704Y3).
T1 construct: GFP; expressed in transfected cells; host or cells: HEK-293 (transient transfection; plasmid a gift from Jie Zheng, UC Davis)
T1 sequence (Q704Y3 whole entry): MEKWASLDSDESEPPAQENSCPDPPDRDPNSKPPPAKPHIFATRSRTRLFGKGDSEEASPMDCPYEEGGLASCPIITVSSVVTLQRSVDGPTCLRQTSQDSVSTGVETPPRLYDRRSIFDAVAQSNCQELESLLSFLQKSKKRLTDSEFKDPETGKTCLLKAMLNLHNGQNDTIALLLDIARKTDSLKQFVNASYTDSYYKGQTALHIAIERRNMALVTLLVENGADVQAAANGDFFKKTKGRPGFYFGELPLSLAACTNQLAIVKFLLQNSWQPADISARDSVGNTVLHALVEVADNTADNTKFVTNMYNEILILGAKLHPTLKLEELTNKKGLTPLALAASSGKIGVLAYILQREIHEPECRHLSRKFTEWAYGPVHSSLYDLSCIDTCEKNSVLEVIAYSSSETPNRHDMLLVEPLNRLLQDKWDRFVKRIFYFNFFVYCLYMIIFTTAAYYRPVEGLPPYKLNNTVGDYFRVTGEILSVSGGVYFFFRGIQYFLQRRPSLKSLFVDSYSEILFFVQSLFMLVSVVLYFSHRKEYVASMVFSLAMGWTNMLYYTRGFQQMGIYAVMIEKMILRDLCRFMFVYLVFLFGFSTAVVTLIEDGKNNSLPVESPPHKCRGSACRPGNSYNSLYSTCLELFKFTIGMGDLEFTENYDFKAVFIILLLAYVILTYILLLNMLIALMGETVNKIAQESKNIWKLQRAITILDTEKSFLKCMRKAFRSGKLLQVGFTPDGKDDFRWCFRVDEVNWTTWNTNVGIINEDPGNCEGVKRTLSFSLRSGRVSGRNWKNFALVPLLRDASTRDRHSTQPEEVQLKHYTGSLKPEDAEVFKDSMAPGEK
Nature of the assay: calcium influx assay in HEK293 cells heterologously expressing mTRPV1. It counts as cell-based. The conditions noted are these: for concentration that produced significant Ca2+ influx: HEK293 cells expressing mTRPV1, fluo-4, FIG. 4; for TRPV1 channel activation: at low doses. How it is done:
The mTRPV1 plasmid that contains a GFP tag was a generous gift from Professor Jie Zheng at University of California, Davis. The HEK-293 cells were cultured in a poly-D-lysine coated T75 dish at an initial density of 4×10^5 cells/dish and maintained in culture medium (DMEM+10% FBS+100 units/ml peniclillin, 0.1 mg/ml streptomycine) in an incubator at 37° C. with 5% CO2 and 95% humidity. At 50% confluence, the HEK-293 cells were transfected with 10 μg of mTRPV1 plasmid using Lipofectamine 2000 (Invitrogen Corporation, Carlsbad, Calif., USA) in antibiotic—as well as serum-free culture medium. After 6 hour incubation, the serum-free medium was replaced with normal culture medium and the cells were cultured for another 48 hours. The transfection efficiency was determined by examined the GFP expression as well as the Ca^2+ response after exposure to capsaicin.
The HEK-293 cells transiently transfected mTRPV1 were planted onto poly-D-lysine (Sigma-Aldrich, St. Louis, Mo., USA) coated black-well, clear-bottom, 96-well plates (Corning, Coring, N.Y., USA) at an initial density of 40,000/well. The cells were then cultured in DMEM medium for 18-24 hours as described previously (Ref. 38). Briefly, the growth medium was removed and replaced with dye loading buffer (100 μl/well) containing 4 μM fluo-4 and 0.5 mg/ml BSA in Locke's buffer (in mM: 8.6 HEPES, 5.6 KCl, 154 NaCl, 5.6 Glucose, 1.0 MgCl2, 2.3 CaCl2), 0.0001 glycine, pH 7.4). After 1 hour incubation in dye loading buffer, cells were washed four times in fresh Locke's buffer and transferred to the plate chamber of FLIPR^TETRA (Molecular Devices, Sunnyvale, Calif., USA). The final volume of Locke's buffer in each well was 150 μl. The cells were excited at 488 nm and Ca^2+ bound fluo-4 emission at 535 nm was recorded. Fluorescence readings were taken every 1 second for 120 s to establish the baseline. Different concentrations (4×) of compounds were added to the cells from a compound plate in a volume of 50 μl at a rate of 30 μl/s using a programmable robotic system. The fluorescence signals were recorded for an additional 380 seconds. All the experiments were performed at room temperature. The Ca^2+ data were represented as Fluo-4 fluorescence units (F/Fo). For quantifying the Ca^2+ response, the area under the curve (AUC) was used. Graphing and statistical analyses were performed using GraphPad Prism software (GraphPad Software Inc., San Diego, Calif.). Statistical significance was determined by an ANOVA and, where appropriate, a Dunnett's multiple comparison test and p values below 0.05 was considered statistically significant.
The influence of 20-HETE, 20-HEPE, and 22-HDoHe on mTRPV1 was measured in HEK293 cells heterologously expressed mTRPV1 using calcium influx assay. […] The discrepancy between previous study and current study is likely due to the fact that the mTRPV1 was used in the current study, while the hTRPV1 was used in the previous study.

Assay [3] deals with T2, ovine COX-1 (Ovis aries, UniProt P05979).
T2 construct: purchased Cayman Chemical 700100
T2 sequence (P05979 25-600): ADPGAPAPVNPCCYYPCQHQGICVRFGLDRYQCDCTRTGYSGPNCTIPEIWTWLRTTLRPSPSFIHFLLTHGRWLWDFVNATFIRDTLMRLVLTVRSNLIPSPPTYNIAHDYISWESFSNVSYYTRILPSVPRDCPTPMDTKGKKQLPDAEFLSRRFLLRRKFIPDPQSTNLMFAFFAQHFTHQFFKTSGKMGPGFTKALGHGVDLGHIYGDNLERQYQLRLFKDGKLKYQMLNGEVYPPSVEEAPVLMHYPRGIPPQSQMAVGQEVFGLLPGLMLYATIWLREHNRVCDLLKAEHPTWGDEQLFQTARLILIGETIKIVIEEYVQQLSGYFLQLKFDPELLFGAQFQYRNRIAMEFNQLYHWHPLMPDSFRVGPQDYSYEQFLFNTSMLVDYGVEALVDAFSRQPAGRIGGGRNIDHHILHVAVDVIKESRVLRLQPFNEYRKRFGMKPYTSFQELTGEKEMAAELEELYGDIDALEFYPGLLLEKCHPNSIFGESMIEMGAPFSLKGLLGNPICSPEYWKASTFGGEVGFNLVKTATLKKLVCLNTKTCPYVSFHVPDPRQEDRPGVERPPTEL
Description: COX Fluorescent Inhibitor Screening Assay, COX-1. It counts as biochemical. The conditions noted are these: read-out: % inhibition at 100 μM COX-1, triplicate. The protocol:
(§1) Briefly, to a series of supplied reaction buffer solutions (150 μl, 100 mM Tris-HCl, pH 8.0) with either COX-1 or COX-2 (10 μl) enzyme in the presence of Heme (10 μl) and fluorometric substrate (10 μl) were added 10 μl of 100 μM concentration of the test compound solutions. The reactions were initiated by adding 10 μl of ARA solution and then incubated for two minutes at room temperature. Percent inhibition was calculated by comparison from the 100% initial activity sample value (no inhibitor).

The target in assay [4] is T3, human COX-2 (Homo sapiens, UniProt P35354).
T3 construct: purchased Cayman Chemical 700100
T3 sequence (P35354 18-604): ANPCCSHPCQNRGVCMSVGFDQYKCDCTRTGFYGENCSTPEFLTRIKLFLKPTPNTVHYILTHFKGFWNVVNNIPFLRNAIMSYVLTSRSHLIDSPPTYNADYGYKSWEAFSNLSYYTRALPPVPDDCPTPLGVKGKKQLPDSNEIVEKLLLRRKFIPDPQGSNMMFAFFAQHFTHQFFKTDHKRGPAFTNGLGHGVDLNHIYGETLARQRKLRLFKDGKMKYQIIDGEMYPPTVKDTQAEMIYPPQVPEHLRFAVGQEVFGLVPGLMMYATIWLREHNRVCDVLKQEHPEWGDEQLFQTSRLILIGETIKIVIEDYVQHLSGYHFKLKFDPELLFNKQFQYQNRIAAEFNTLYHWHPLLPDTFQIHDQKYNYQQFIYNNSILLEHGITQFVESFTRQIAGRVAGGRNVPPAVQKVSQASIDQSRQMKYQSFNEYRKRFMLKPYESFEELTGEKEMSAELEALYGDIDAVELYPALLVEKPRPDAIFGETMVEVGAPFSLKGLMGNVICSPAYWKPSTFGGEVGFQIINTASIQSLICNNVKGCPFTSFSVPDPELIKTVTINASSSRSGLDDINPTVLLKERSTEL
Description: COX Fluorescent Inhibitor Screening Assay, COX-2. It counts as biochemical. Particulars: for inhibition at 100 µM: read-out: % inhibition at 100 μM COX-2, triplicate; for COX-2 activity changes: up to 100 μM concentrations. The protocol:
as §1

Assay [5] concerns VEGF-induced angiogenesis. Description: Matrigel plug angiogenesis assay. Format: in vivo. Particulars: co-addition in Matrigel with 100 ng VEGF, C57BL/6 mice. The protocol:
FIG. 7A is a simplified scheme of the animal experiment: Matrigel containing VEGF (angiogenesis inducer) and 22-HDoHE or vehicle were injected into C57BL/6 mice, after 4-7 days of treatment, the Matrigel plugs were dissected and subjected to angiogenesis analysis.
Angiogenesis, the process of formation of new blood vessels from pre-existing vessels, has been established to be critical for multiple human diseases including cancer. Vascular endothelial growth factor (VEGF) is the most important angiogenesis inducer.

Assay [6] deals with human umbilical vein endothelial cells (HUVECs). Description: VEGF-induced endothelial cell migration (Boyden chamber). It counts as cell-based. Particulars: dose range of 1-3 μM, 10 ng/mL VEGF, 6 hours. The protocol:
FIG. 8 is a series of photographs showing 22-HDoHE inhibition of VEGF-induced endothelial cell migration in HUVEC cells. The cell migration assay was conducted using a standard Boyden chamber assay with 10 ng/mL VEGF as chemoattractant, and the assay time was 6 hours.
It was tested whether 22-HDoHE has direct anti-angiogenic actions in primary endothelial cells, using a VEGF-induced endothelial cell migration in human umbilical vein endothelial cells (HUVECs).

Assay [7] relates to B16F10 melanoma. Nature of the assay: B16F10 melanoma primary tumor growth model. It counts as in vivo. The conditions noted are these: 0.5 mg/kg/day by mini-pumps, 2-wk treatment, C57BL/6 mice. The protocol:
FIG. 9 is a photograph and a bar graph showing systematic treatment of 0.5 mg/kg/day 22-HDoHE inhibited ˜50% of B16F10 melanoma growth in C57BL/6 male mice. B16F10 melanoma cells (200,000 cells per mouse) were sub-Q injected into C57BL/6 mice to induce primary tumor growth of melanoma, then the mice were treated with 22-HDoHE using mini-pumps at a dose of 0.5 mg/kg/day. After 2-wk treatment, the mice were sacrificed to dissect the tumors for analysis.
Angiogenesis has been well established to play an essential role in cancer, through providing nutrients and oxygen to the tumors tissues to promote tumor progression. The effect of 22HDoHE on primary tumor growth in mice was studied using a highly aggressive B16F10 melanoma model in C57BL/6 mice.

The subject of assay [8] is human dermal lymphatic endothelial cells (HMVEC-dLy). Description: VEGF-C-induced tube formation. It counts as cell-based. Particulars: dose-dependent manner, FIG. 10. The protocol:
The effect of 22-HDoHE on lymphangiogenesis was evaluated using a vascular endothelial growth factor-C (VEGF-C)-induced tube formation in human dermal lymphatic endothelial cells (HMVEC-dLy).

Assay [9] has as its system HMVEC-dLy. Nature of the assay: complete medium-induced HMVEC-dLy migration, Boyden chamber assay. It counts as cell-based, human. The conditions noted are these: FIG. 11.
Assay [10] concerns the target hTRPV1 (Homo sapiens, UniProt Q8NER1). Particulars: 10 μM, previous study (Ref 24); cited from earlier work.

One may read the inhibition as the percentage by which the read-out fell short of the control.

hTRPV1, sequence (Q8NER1 whole entry): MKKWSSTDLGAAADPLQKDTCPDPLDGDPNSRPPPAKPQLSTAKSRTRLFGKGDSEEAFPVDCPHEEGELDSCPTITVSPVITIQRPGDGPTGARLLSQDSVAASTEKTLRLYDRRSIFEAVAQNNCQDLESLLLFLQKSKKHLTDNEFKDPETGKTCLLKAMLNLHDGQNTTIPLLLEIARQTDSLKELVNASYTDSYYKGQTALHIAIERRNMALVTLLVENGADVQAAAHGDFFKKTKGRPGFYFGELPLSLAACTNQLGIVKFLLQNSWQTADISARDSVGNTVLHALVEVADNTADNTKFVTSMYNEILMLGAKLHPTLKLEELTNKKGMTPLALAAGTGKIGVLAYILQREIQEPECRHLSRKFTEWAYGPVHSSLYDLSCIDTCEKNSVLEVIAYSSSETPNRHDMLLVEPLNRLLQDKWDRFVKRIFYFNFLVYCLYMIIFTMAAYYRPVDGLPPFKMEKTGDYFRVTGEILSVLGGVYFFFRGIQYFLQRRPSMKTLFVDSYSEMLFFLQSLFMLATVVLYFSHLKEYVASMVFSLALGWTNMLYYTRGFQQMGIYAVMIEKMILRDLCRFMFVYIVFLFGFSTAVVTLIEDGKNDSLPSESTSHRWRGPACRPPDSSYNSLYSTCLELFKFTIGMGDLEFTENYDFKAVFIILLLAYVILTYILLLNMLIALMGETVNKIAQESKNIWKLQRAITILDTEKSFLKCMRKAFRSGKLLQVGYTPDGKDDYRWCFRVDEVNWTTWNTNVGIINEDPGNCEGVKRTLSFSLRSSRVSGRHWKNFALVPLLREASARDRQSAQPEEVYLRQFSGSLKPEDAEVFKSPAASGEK

For the compound `COC(=O)CC/C=C\C/C=C\C/C=C\C/C=C\C/C=C\C/C=C\CCO` [22-HDoHE], in assay [1], the “nociceptive (withdrawal) thresholds, von Frey” value (from here on “nociceptive”) is on record as “neither 20-HEPE nor 22-HDoHE induced a similar decrease in thresholds”.

For the compound `COC(=O)CCC/C=C\C/C=C\C/C=C\C/C=C\CCCCCO`, the “nociceptive” value in [1] is recorded as “decreased nociceptive thresholds acutely”.

As for `COC(=O)CCC/C=C\C/C=C\C/C=C\C/C=C\C/C=C\CCO`, in assay [1], the “nociceptive” value is given as “neither 20-HEPE nor 22-HDoHE induced a similar decrease in thresholds”.

In the case of `O=C(O)CC/C=C\C/C=C\C/C=C\C/C=C\C/C=C\C/C=C\CCO` [22-HDoHE, (4Z,7Z,10Z,13Z,16Z,19Z)-22-Hydroxydocosa-4,7,10,13,16,19-hexaenoic Acid], in assay [2], the “concentration that produced significant Ca2+ influx” value is approximately 3 µM and the TRPV1 channel activation entry is “did not activate TRPV1 channels”. Moreover, the inhibition at 100 µM in [3] turned out to be 38.1%. The inhibition at 100 µM in assay [4] worked out at 1%. In addition, the COX-2 activity changes result in assay [4] (FIG. 5) is given as “No COX-2 activity changes”. Moreover, in assay [5], the “VEGF-induced angiogenesis in Matrigel plugs” value is on record as “almost abolished VEGF-induced angiogenesis”. Also, the “VEGF-induced HUVECs migration” value in [6] is on record as “significantly inhibited”. The “reduction of B16F10 tumor growth” value in assay [7] is approximately 50%. Besides, in assay [8], the “VEGF-C-induced tube formation in HMVEC-dLy cells” value is given as “significantly inhibited”. Besides, in [9], the “complete medium-induced HMVEC-dLy migration” value is recorded as “significantly inhibit”.

On to `O=C(O)CCC/C=C\C/C=C\C/C=C\C/C=C\CCCCCO` [20-HETE, (5Z,8Z,11Z,14Z)-20-Hydroxyicosa-5,8,11,14-tetraenoic Acid], for which, in assay [2] (at or below concentration of 10 uM), the mTRPV1 activation entry is reported as “does not appear to be an mTRPV1 activator”. In addition, the “Ca2+ response” value in assay [2] (at the concentrations examined, FIG. 4) is recorded as “marginal Ca^2+ response”. Moreover, the inhibition at 100 µM turned out to be 27.5% in assay [3] and 0% in assay [4]. For the same compound, the COX-2 activity changes result in assay [4] (FIG. 5) is “No COX-2 activity changes”. For the same compound, the hTRPV1 activation result in assay [10] is “activates hTRPV1”.

For `O=C(O)CCC/C=C\C/C=C\C/C=C\C/C=C\C/C=C\CCO` [20-HEPE, (5Z,8Z,11Z,14Z,17Z)-20-Hydroxyicosa-5,8,11,14,17-pentaenoic Acid], in assay [2], the “concentration that produced significant Ca2+ influx” value amounted to 10 µM and the TRPV1 channel activation result is reported as “did not activate TRPV1 channels”. Also, the inhibition at 100 µM in assay [3] stood at 37.1%. Moreover, the inhibition at 100 µM in [4] is 0%. Also, in [4] (FIG. 5), the COX-2 activity changes result is reported as “No COX-2 activity changes”.

In the case of `CC/C=C\C/C=C\C/C=C\C/C=C\C/C=C\CCCC(=O)O` [EPA, eicosapentaenoic acid, reference compound], in assay [4] (FIG. 5), the “COX inhibitory activity (% inhibition), COX-2” value is listed as “Less than 0%”.
